Molecules are shown by their SMILES. pIC50: −log10 of the molar value. Where a name gives a salt, the structure may show the parent alone. Read-outs that look alike come from different tables or passages of the source.

The values below come from patent publication US5312816A, “Method of combatting osteoporosis in mammalian subjects, utilizing organic boron compounds” (priority 1993, dated 1994).

Assay [1] has as its system Hydroxyproline. Description: Serum and urine hydroxyproline levels in vivo. The conditions noted are these: Cf1 male mice, 8 mg/kg/day I.P. 14 days, N=6.
Assay [2] has as its system Calcium. Description: Serum and urine calcium levels in vivo. The settings on record: Cf1 male mice, 8 mg/kg/day I.P. 14 days, N=6.
Assay [3] concerns Phosphorus. Description: Serum and urine inorganic phosphorus levels in vivo. The settings on record: Cf1 male mice, 8 mg/kg/day I.P. 14 days, N=6.
Assay [4] deals with Acid phosphatase. Description: Mouse hepatic lysosomal acid phosphatase activity. The conditions noted are these: mouse hepatic, 60 min incubation. It counts as biochemical. An excerpt:
(§1) 1. Cf1 male mouse hepatic 10% homogenates in 0.25M sucrose+0.001MEDTA,pH 7.2.
(§2) Lysosomal Enzymes - free and total [triton X-100].
(§3) 1. Acid phosphatase -beta glycerol-3-phosphate, pH 5.0, released IP 720 nm.
Acid phosphatase activity -

Assay [5] deals with T1, Cathepsin D (Mus musculus, UniProt P18242).
T1 construct: azocasein assay pH 5.0
T1 sequence (P18242 65-410): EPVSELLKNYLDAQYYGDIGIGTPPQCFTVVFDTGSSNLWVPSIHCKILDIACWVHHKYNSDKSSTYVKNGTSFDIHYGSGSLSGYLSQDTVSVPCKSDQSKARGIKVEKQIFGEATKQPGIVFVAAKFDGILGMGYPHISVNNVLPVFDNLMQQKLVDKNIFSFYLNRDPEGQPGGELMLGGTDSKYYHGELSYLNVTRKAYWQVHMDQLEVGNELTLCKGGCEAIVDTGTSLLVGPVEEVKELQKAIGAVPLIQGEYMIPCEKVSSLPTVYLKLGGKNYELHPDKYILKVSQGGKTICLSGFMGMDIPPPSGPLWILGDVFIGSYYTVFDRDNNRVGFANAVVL
Description: Mouse hepatic lysosomal cathepsin D activity. Format: biochemical. The conditions noted are these: mouse hepatic, 60 min incubation, read-out: Cathepsin D IC50.
Excerpt: as §1, §2
(§4) 2. Acid Cathepsin D -azocasein-pH 5.0, hydrolytic azo-peptide produce 366 nm.
Cathepsin azo casein activity -

The target in assay [6] is T2, Prostaglandin synthetase (Bos taurus, UniProt O62664).
T2 construct: Prostaglandin synthetase purified beef seminal vesicle; from tissue
T2 sequence (O62664 25-600): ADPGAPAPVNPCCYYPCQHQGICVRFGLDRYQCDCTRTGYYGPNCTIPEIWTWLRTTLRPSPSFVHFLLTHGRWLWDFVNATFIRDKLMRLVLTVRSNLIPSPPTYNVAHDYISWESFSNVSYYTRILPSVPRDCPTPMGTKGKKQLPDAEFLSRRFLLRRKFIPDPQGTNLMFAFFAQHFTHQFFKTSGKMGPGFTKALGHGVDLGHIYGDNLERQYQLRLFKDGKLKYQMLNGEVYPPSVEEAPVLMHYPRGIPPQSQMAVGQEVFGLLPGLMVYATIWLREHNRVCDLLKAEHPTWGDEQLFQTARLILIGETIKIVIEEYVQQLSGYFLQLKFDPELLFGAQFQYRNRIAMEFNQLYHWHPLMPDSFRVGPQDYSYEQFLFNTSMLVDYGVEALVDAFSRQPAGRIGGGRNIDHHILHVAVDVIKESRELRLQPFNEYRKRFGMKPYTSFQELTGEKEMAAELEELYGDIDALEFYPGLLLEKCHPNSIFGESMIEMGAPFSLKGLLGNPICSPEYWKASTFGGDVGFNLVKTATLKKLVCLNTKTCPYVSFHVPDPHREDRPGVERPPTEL
Description: Prostaglandin synthetase (cyclooxygenase), purified beef seminal vesicle. It counts as biochemical. The settings on record: Table IX; commercial enzyme preparation; read-out: Beef Prostaglandin Cyclooxygenase IC50. An excerpt: (§5) Prostaglandin synthetase purified beef seminal vesicle ^3 H arachidonic acid (86.2 Ci/mmol), tlc separation.

Assay [7] concerns the target T3, Cathepsin D (Homo sapiens, UniProt P07339).
T3 construct: azocasein assay pH 5.0
Description: Human osteoporosis fibroblasts cathepsin D (azo-casein) activity. Format: cell-based. The settings on record: Table X; human osteoporosis fibroblasts, DMEM +10% FCS + P/S; read-out: Cathepsin D IC50.
Description: Osteoporosis Human Fibroblast-CRL-1140, Be SA1

Assay [8] concerns Acid phosphatase. Description: Human osteoporosis fibroblasts acid phosphatase activity. It counts as cell-based. The conditions noted are these: read-out: Acid Phosphatase IC50; Table X; human osteoporosis fibroblasts.
Excerpt: as §3

Assay [9] deals with Aryl sulphatase. Description: Human osteoporosis fibroblasts aryl sulphatase activity. The conditions noted are these: read-out: Aryl Sulphatase IC50; Table X; human osteoporosis fibroblasts. Format: cell-based. An excerpt: (§6) 3. Aryl sulphatase- p-nitrocatechol sulfate, pH
(§7) 5. 8 p-nitro-catechol product 510 nm.

Assay [10] has as its system Cf1 male mice. Description: Writhing reflex, 0.6% acetic acid. Format: in vivo. The conditions noted are these: Mus musculus, ip; Table IV; 8 mg/kg I.P. A general note: An intraperitoneal irritant provokes the stretching counted in writhing tests.
For assay [11], the system named is Cf1 male mice. Description: Anti-inflammatory screen, Winter's test, 2% carrageenan hind foot. It counts as in vivo. The conditions noted are these: Table XIV; unit inferred; unit assumed. Here is the method:
Anti-inflammatory Screen- Cf1 - male mice-Winter's Test 2% carrageenan S.C. plantar surface of hind foot, drugs administered @8 or 10 mg/kg I.P. 2X
Winter, C.A., et al, Proc. Soc.

In assay [12] the test system is Cf1 male mice. Description: Writhing reflex, 0.6% acetic acid. Format: in vivo. The settings on record: Table XIV; unit inferred; unit assumed. How it is done:
Writhing reflex- Cf1 -male mice- 0.6% acetic acid I.P. drugs administered @20 mg/kg/ I.P. 20 min. later - the # of stretches/10 min.
Hendershot, L.C., et al, J.

The target in assay [13] is Aryl sulphatase. Description: Mouse hepatic lysosomal aryl sulphatase activity. The conditions noted are these: Table XV, 60 min incubation. It counts as biochemical.
Excerpt: as §1, §2, §6, §7

Assay [14] has as its system Trypsin. Description: Mouse hepatic trypsin activity. Format: biochemical. The conditions noted are these: Table XVI; 60 min incubation; read-out: Mouse Hepatic Trypsin IC50.
Excerpt: as §1
1. Trypsin- N-benzoyl-L-arginine ethyl ester pH 8.0, hydrolytic product 253 nm.

Assay [15] concerns the target T1, Cathepsin D. Description: Mouse macrophage cathepsin D activity. It counts as cell-based. The settings on record: Table XVII; mouse macrophage, 60 min incubation; read-out: Cathepsin D pH 5.0 IC50.
Excerpt: (§8) 3. Mouse macrophages J774A.1 BALB/c
as §4

Assay [16] deals with Acid phosphatase. Description: Mouse macrophage acid phosphatase activity. Format: cell-based. The settings on record: Table XVII; mouse macrophage, 60 min incubation; read-out: Acid Phosphatase IC50.
The subject of assay [17] is Aryl sulphatase. Description: Mouse macrophage aryl sulphatase activity. The settings on record: Table XVII; mouse macrophage, 60 min incubation; read-out: Aryl Sulphatase IC50. It counts as cell-based.
For assay [18], the system named is Trypsin. Description: Mouse macrophage trypsin (BAEE) activity. It counts as cell-based. The conditions noted are these: Table XVIII; mouse macrophage, 60 min incubation; read-out: Trypsin BAEE IC50.
Assay [19] relates to Elastase. Description: Mouse macrophage elastase activity. It counts as cell-based. The settings on record: Table XVIII; mouse macrophage, 60 min incubation; read-out: Elastase IC50.
Description: Elastase- N-succinyl-L-alanyl-L-alanine-p-nitroanilide, pH 8.0, p-nitro anilide 410 nm.
In assay [20] the test system is Prostaglandin cyclooxygenase. Description: Mouse macrophage prostaglandin cyclooxygenase activity. Format: cell-based. The settings on record: Table XVIII; mouse macrophage, 60 min incubation; read-out: Prostaglandin Cyclooxygenase IC50.
Excerpt: as §8, §5

Assay [21] deals with Cf1 male mice. Description: Hot plate tail flick test. It counts as in vivo. The conditions noted are these: Table XIV; unit not given. For orientation: Hot-plate and tail-flick tests time the reaction to a heat stimulus.
Assay [22] has as its target T4, Pg. cyclooxygenase (Sus scrofa, UniProt A0A287ANF9).
T4 construct: Porcine Seminal; from tissue; the methods section prints beef seminal vesicle
Description: Porcine seminal vesicles Pg. cyclooxygenase. It counts as biochemical.

Assay [23] deals with Commercial Collagenase. Description: Commercial collagenase (type not stated). It counts as biochemical. The conditions noted are these: Table XVI, 60 min incubation. An excerpt:
3. Collagenase I, Clostridium histolyticum, bone, skin, tendon, blood vessel, dentine, GI. substrate: rat collagen, N-[propionate-2-3-^3 H] propionylated measured as dpm released.
4. Collagenase II, Clostridium histolyticum, cartilage collagen.

T4 sequence (A0A287ANF9 25-600): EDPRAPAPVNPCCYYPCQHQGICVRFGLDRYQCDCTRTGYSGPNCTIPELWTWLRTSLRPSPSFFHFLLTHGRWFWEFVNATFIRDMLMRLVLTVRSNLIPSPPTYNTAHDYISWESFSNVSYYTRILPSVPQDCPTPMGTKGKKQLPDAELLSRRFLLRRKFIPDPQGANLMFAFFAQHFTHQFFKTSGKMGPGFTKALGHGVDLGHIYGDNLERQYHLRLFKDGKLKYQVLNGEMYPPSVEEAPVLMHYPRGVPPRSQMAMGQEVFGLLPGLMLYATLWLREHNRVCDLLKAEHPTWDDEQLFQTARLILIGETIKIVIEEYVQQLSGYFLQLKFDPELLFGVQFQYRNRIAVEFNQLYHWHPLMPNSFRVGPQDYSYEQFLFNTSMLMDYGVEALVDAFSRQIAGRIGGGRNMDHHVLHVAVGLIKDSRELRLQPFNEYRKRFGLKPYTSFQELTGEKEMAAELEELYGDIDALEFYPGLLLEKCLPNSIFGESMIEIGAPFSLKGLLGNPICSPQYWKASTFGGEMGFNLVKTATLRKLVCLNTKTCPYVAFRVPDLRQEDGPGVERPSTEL
T3 sequence (P07339 65-412): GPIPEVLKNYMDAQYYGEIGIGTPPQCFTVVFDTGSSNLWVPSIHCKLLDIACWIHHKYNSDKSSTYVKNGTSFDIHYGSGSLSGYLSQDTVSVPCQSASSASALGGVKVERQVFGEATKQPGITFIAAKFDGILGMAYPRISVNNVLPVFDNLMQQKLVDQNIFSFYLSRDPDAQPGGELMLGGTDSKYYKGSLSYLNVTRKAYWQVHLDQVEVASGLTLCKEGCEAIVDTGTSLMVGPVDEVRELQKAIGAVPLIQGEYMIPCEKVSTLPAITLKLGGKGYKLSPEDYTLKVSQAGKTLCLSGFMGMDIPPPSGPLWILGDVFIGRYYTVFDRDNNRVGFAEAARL

On to `COC(=O)[BH2-][NH+](C)C` [(CH3)2 NHBH2 COOCH3, Dimethylamine-carbomethoxyborane], for which, in [1], the Hydroxyproline serum is 84.4 % Control and the Hydroxyproline urine turned out to be 50.5 % Control. In addition, in [2], the Calcium serum is on record as 125.4 % Control and the Calcium urine stood at 80.7 % Control. Also, in assay [3], the Phosphorus serum turned out to be 42.8 % Control and the Phosphorus urine amounted to 67.8 % Control.

In assay [1], `CC[NH2+][BH2-]C(=O)O` [CH3 CH2 NH2 BH2 COOH] displayed a Hydroxyproline serum of 89.1 % Control and a Hydroxyproline urine of 69.2 % Control. Also, in [2], the Calcium serum came out at 121.0 % Control and the Calcium urine was 61.2 % Control. In assay [3], this molecule had a Phosphorus serum of 64.3 % Control and a Phosphorus urine of 78.0 % Control.

In [1], `C[NH2+][BH2-]C(=O)OC` [CH3 NH2 BH2 COOCH3, Methylamine-carbomethoxyborane] returned a Hydroxyproline serum of 68.0 % Control and a Hydroxyproline urine of 144.1 % Control. In [2], the Calcium serum is 105.1 % Control and the Calcium urine is given as 176.9 % Control. In assay [3], this molecule registered a Phosphorus serum of 65.3 % Control and a Phosphorus urine of 136.8 % Control.

As to `O=C(O)[BH2-][P+](c1ccccc1)(c1ccccc1)c1ccccc1` [Compound 8, Triphenylphosphine-carboxyborane], in [1], the Hydroxyproline serum is 60.5 % Control and the Hydroxyproline urine came out at 30.0 % Control. Also, the Calcium urine in [2] was 83.5 % Control.

The term pIC50 denotes the negative decadic logarithm of the IC50, by convention in mol/L. Consider `O=C(O)[BH2-][n+]1ccccc1` [Compound 15, Pyridine-carboxyborane], for which the negative logarithm of the IC50 (pIC50) in [4] (Table V) is 5.00; in assay [5] (Table V), 5.32; in assay [6], 5.12; in assay [7], 5.09; in assay [8], 4.74; in assay [9], 5.09. The molecule further displayed a response vs control in vivo at 8 mg/kg in [10] of 50%.

`C[N+](C)(C)[BH2-]C(=O)O` [Compound 22, Trimethylamine-carboxyborane, sodium salt]: in [11], the Anti-Inflammation Cf1 Mice was determined as 73.4%. In assay [12], this molecule displayed a Writhing Reflex Mice of 76.5%. Besides, the pIC50 in assay [4] (Table XV) is 5.45; in assay [5] (Table XV) it was 5.17; in assay [13], 5.29; in assay [14], 5.00; in assay [15], 5.72; in assay [16], 5.70. For the same molecule, the pIC50 was 5.88 in assay [17]; 5.64 in assay [18]; 5.14 in assay [19]; 5.62 in assay [20]; 5.62 in assay [22]; 3.31 in [23] (sodium salt). Further, the “Tail Flick Mice” value in [21] was determined as 101.

For the molecule `CC#N.CO.CO.CO.C[N+](C)(C)[BH2-]C(=O)[O-].C[N+](C)(C)[BH2-]C(=O)[O-].C[N+](C)(C)[BH2-]C(=O)[O-].C[N+](C)(C)[BH2-]C(=O)[O-].C[N+](C)(C)[BH2-]C(=O)[O-].C[N+](C)(C)[BH2-]C(=O)[O-].O=[N+]([O-])[O-].[Fe+3].[Fe+3].[Fe+3].[O-2]` [Compound 24], in assay [11], the Anti-Inflammation Cf1 Mice is 81.6%. This molecule also showed a Writhing Reflex Mice in assay [12] of 42.9%. In addition, the negative logarithm of the IC50 (pIC50) was 5.25 in assay [4] (Table XV); 5.16 in assay [5] (Table XV); 5.59 in [13]; 5.00 in assay [14]; 5.55 in assay [15]; 5.68 in assay [16]. Besides, the pIC50 was 5.71 in assay [17]; 5.63 in assay [18]; 5.41 in assay [19]; 5.63 in [20]; 5.54 in [22] (Table XVI, 60 min incubation); 3.32 in assay [23]. The “Tail Flick Mice” value in assay [21] is on record as 338.

In the case of `C[N+](C)(C)[BH2-]C(=O)[O-].C[N+](C)(C)[BH2-]C(=O)[O-].C[N+](C)(C)[BH2-]C(=O)[O-].C[N+](C)(C)[BH2-]C(=O)[O-].C[N+](C)(C)[BH2-]C(=O)[O-].C[N+](C)(C)[BH2-]C(=O)[O-].O.O.O.[Cl-].[Fe+3].[Fe+3].[Fe+3].[O-2]` [Compound 25], the Anti-Inflammation Cf1 Mice in assay [11] was found to be 74.2%. The molecule further had a Writhing Reflex Mice in [12] of 36.4%. For the same molecule, the negative-log IC50 (pIC50) in assay [4] (Table XV) was 5.38; in assay [5] (Table XV), 5.09; in [13] it was 5.63; in assay [14] it was 5.00; in assay [15] it was 5.47; in [16] it was 5.61. Besides, the negative-log IC50 (pIC50) in [17] is 5.56; in assay [18], 5.74; in assay [19], 5.39; in assay [20], 5.68; in assay [22] (Table XVI, 60 min incubation), 5.38; in assay [23], 3.32. Also, in assay [21], the “Tail Flick Mice” value amounted to 599.
